Test system: subject one
Assay: Female Sexual Functioning Index (FSFI) self-report before and after 4-week oral treatment
Assay type: in vivo, human
Conditions: for FSFI: confidence about becoming sexually aroused / FSFI: difficulty to become lubricated / FSFI: difficulty to maintain lubrication until completion / FSFI: difficulty to reach orgasm / FSFI: how often became lubricated / FSFI: how often felt sexual desire or interest / FSFI: how often felt sexually aroused / FSFI: how often maintained lubrication until completion / FSFI: how often reached orgasm / FSFI: how often satisfied with arousal / FSFI: level of sexual arousal / FSFI: level of sexual desire or interest / FSFI: satisfaction with ability to reach orgasm / FSFI: satisfaction with amount of emotional closeness with partner / FSFI: satisfaction with overall sexual life / FSFI: satisfaction with sexual relationship with partner: post-treatment FSFI
Description: The “Female Sexual Functioning Index” or “FSFI” is a 19-item self-report inventory designed to assess female sexual function. It comprises six domains: desire (two items)], arousal (four items), lubrication (four items), orgasm, satisfaction, and pain (three items each).
The therapeutic efficacy of 3,4-diaminopyridine and its salts in the present methods can be determined by clinicians, for example, by using appropriate self-report inventories or questionnaires. In some embodiments, the therapeutic efficacy of 3,4-diaminopyridine, or a pharmaceutically acceptable thereof, in the present methods in female subjects can be assessed by the Female Sexual Functioning Index (FSFI) designed to measure sexual functioning in women. See, e.g., Rosen et al., Journal of Sex and Marital Therapy 26:191-208 (2000).
subject one self-reported their sexual functioning for the past 4 weeks using the FSFI questionnaire (“the pre-treatment FSFI”).
The subject then orally self-administered a total daily dose of 80 mg of 3,4-diaminopyridine phosphate salt for 4 weeks. The last dose of each day was self-administered at about 5:30 pm. The timing of their sexual activity, if any, was in the evening.
After the 4-week treatment period, the subject self-reported their sexual functioning for the past 4 weeks using the FSFI questionnaire (“the post-treatment FSFI”).
The subject then orally self-administered a total daily dose of 60 mg of 3,4-diaminopyridine phosphate salt for 4 weeks. The last dose of each day was self-administered at about 6 pm. The timing of their sexual activity, if any, was in the evening at 8-9 pm.
The subject then orally self-administered a total daily dose of 40 mg of 3,4-diaminopyridine phosphate salt for 4 weeks. The last dose of each day was self-administered at about 11 pm (5 mg). The timing of their sexual activity, if any, was in the morning, afternoon, and at night.

[1] = Example 1 subject one, total daily dose 80 mg orally for 4 weeks
[2] = Example 2 subject one, total daily dose 60 mg orally for 4 weeks
[3] = Example 3 subject one, total daily dose 40 mg orally for 4 weeks
[4] = four week course of an effective daily dose, general statement

Nc1ccncc1N.O=P(O)(O)O [3,4-diaminopyridine phosphate salt]
confidence while being treated (subject report) [1]: more confident | emotional experience with partner (subject report) [1]: better | time to reach orgasm (subject report) [1]: shorter | FSFI: confidence about becoming sexually aroused [1]: very high | FSFI: difficulty to become lubricated [1]: slightly difficult | FSFI: difficulty to maintain lubrication until completion [1]: slightly difficult | FSFI: difficulty to reach orgasm [1]: not difficult | FSFI: how often became lubricated [1]: most times | FSFI: how often felt sexual desire or interest [1]: almost always or always | FSFI: how often felt sexually aroused [1]: almost always or always | FSFI: how often maintained lubrication until completion [1]: most times | FSFI: how often reached orgasm [1]: most times | FSFI: how often satisfied with arousal [1]: most times | FSFI: level of sexual arousal [1]: high | FSFI: level of sexual desire or interest [1]: moderate | FSFI: satisfaction with ability to reach orgasm [1]: very satisfied | FSFI: satisfaction with amount of emotional closeness with partner [1]: very satisfied | FSFI: satisfaction with overall sexual life [1]: very satisfied | FSFI: satisfaction with sexual relationship with partner [1]: very satisfied | confidence while being treated (subject report) [2]: more confident | emotional experience with partner (subject report) [2]: better | time to reach orgasm (subject report) [2]: shorter | FSFI: confidence about becoming sexually aroused [2]: very high | FSFI: difficulty to become lubricated [2]: not difficult | FSFI: difficulty to maintain lubrication until completion [2]: not difficult | FSFI: difficulty to reach orgasm [2]: not difficult | FSFI: how often became lubricated [2]: almost always or always | FSFI: how often felt sexual desire or interest [2]: almost always or always | FSFI: how often felt sexually aroused [2]: most times | FSFI: how often maintained lubrication until completion [2]: almost never or never | FSFI: how often reached orgasm [2]: almost always or always | FSFI: how often satisfied with arousal [2]: almost always or always | FSFI: level of sexual arousal [2]: very high | FSFI: level of sexual desire or interest [2]: very high | FSFI: satisfaction with ability to reach orgasm [2]: very satisfied | FSFI: satisfaction with amount of emotional closeness with partner [2]: very satisfied | FSFI: satisfaction with overall sexual life [2]: very satisfied | FSFI: satisfaction with sexual relationship with partner [2]: very satisfied | orgasms experienced after taking the drug, not experienced before (subject report) [3]: multiple orgasms | FSFI: confidence about becoming sexually aroused [3]: very high | FSFI: difficulty to become lubricated [3]: not difficult | FSFI: difficulty to maintain lubrication until completion [3]: not difficult | FSFI: difficulty to reach orgasm [3]: not difficult | FSFI: how often became lubricated [3]: almost always or always | FSFI: how often felt sexual desire or interest [3]: almost always or always | FSFI: how often felt sexually aroused [3]: almost always or always | FSFI: how often maintained lubrication until completion [3]: almost always or always | FSFI: how often reached orgasm [3]: almost always or always | FSFI: how often satisfied with arousal [3]: almost always or always | FSFI: level of sexual arousal [3]: very high | FSFI: level of sexual desire or interest [3]: very high | FSFI: satisfaction with ability to reach orgasm [3]: very satisfied | FSFI: satisfaction with amount of emotional closeness with partner [3]: very satisfied | FSFI: satisfaction with overall sexual life [3]: very satisfied | FSFI: satisfaction with sexual relationship with partner [3]: very satisfied | sexual functioning of subjects suffering from sexual dysfunction (daily oral administration, general statement): overall improvement | orgasmic ability (FSFI before and after) [4]: increased orgasmic ability | sexual desire (FSFI before and after) [4]: increased sexual desire | sexual satisfaction (FSFI before and after) [4]: increased sexual satisfaction

Reference: patent US20220273631A1, “METHOD FOR TREATING SEXUAL DYSFUNCTION” (Catalyst Pharmaceuticals, Inc., priority 2019, published 2022)
